Calls of active or inactive are those of the source.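 How the source made its calls: active means AC50 no more than ten times the top concentration tested, that is within one log above it; inconclusive means flat curve fit with activity between 30% and 70%, or invalid poor fit; inactive means AC50 beyond ten times the top tested dose.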

The subject of the assay is S. cerevisiae Mot1-301 ts growth rescue, BacTiter-Glo ATP luminescence. The assay is described as follows: restored Mot1-301 yeast growth at 38.5C – whole organism, S. cerevisiae, Mot1-301 ts mutant, luminescence, dose retest, SUMOylation pathway inhibitor project, confirmation (AID 463204).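 Further: growth at restrictive 38.5 degrees C of Mot1-301 OY566 strain; actives raise luminescence by restoring growth of the ts mutant at high temperature.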
For orientation: AC50 means the midpoint of the concentration-response curve, whichever way the signal moves. On to `O=C(CCc1ccccc1)NNC(=S)Nc1ccc(F)cc1`, for which the AC50 was > 42 µM (inactive).

For `CCCc1nc(NCc2ccccc2)c(C#N)c2c1CCCC2`, the AC50 was > 42 µM (inactive).

`O=C(Nc1ccccc1N1CCOCC1)c1cc(Br)c(Br)s1`: the AC50 was > 42 µM (inactive).

As to `O=C(CSc1ncn[nH]1)Nc1cccc(S(=O)(=O)N2CCCCCC2)c1`, the AC50 is > 42 µM (inactive).

As to `O=C(C1CCN(C2CC(=O)N(c3cccc(Cl)c3)C2=O)CC1)N1CCCC1` (stereo unspecified), the AC50 was 7.84 µM.

With `Cc1ccc(S(=O)(=O)NNC(=O)c2cc3cc4ccccc4nc3s2)cc1`, the AC50 was > 42 µM (inactive).

Turning to `O=C(O)c1ccc(Cl)c(NCc2cccs2)c1`, the AC50 was > 42 µM (inactive).

On to `Cc1ccc(C2=NN(CC(=O)NCc3cccs3)C(=O)CC2)cc1`, for which the AC50 was > 42 µM (inactive).

As for `O=C(OCC(=O)N1CCN(Cc2ccccc2)CC1)c1ccc(Cl)cc1`, the AC50 is > 42 µM (inactive).

In the case of `CCC(C)NC(=O)CSc1nnc(-c2cc(-c3ccc(C)cc3)nc3ccccc23)n1N` (stereo unspecified), the AC50 is > 42 µM (inactive).

For the compound `O=C(NCCCN1CCN(c2ccccc2F)CC1)Nc1ccccc1[N+](=O)[O-]`, the AC50 is > 42 µM (inactive).

For the compound `CCc1ccccc1NC1c2ccccc2C(=O)N1c1cccnc1` (stereo unspecified), the AC50 is > 42 µM (inactive).

As for `O=C(NCC1CCCO1)C1CC(c2ccc(Cl)c(Cl)c2)=NO1` (stereo unspecified), the AC50 was > 42 µM (inactive).

`COc1ccc(C(=O)Nc2ccccc2C(=O)NCCN2CCOCC2)cc1OC`: the AC50 was > 42 µM (inactive).

As to `CC(C)Sc1ccc(C(=O)Nc2ccc(F)cc2F)cn1`, the AC50 is > 42 µM (inactive).

Consider `CCOc1ccc(CCNC(=O)COC(=O)c2cccc(OC)c2O)cc1OCC`, for which the AC50 was > 42 µM (inactive).

Consider `O=C(NCCCN1CCOCC1)C1CCC(=O)N1CCc1ccccc1` (stereo unspecified), for which the AC50 is > 42 µM (inactive).

As for `CC(=O)C(C(c1ccccc1)c1c[nH]c2ccccc12)[N+](=O)[O-]` (stereo unspecified), the concentration at half-maximal activity (AC50) was 33 µM.

As to `CCCN1C(=O)c2[nH]nc(-c3cc(Cl)c(C)cc3O)c2C1c1ccc(O)c(OC)c1` (stereo unspecified), the AC50 is > 42 µM (inactive).

For `COc1ccccc1C(=O)OCC(=O)NC(=O)NCc1ccccc1`, the AC50 was > 42 µM (inactive).

Regarding `N#Cc1c(-c2ccco2)cc(-c2cccnc2)nc1N`, the AC50 was > 42 µM (inactive).

As for `O=Nc1c(-c2cccc([N+](=O)[O-])c2)nc2ncccn12`, the AC50 was 4.09 µM.

As for `Cc1cc(CNC(=O)C2CCC(=O)N(Cc3ccccc3F)C2)on1` (stereo unspecified), the AC50 is > 42 µM (inactive).

With `CO/N=C/c1ccc(Oc2ccc(C)cc2)nc1`, the AC50 was > 42 µM (inactive).

With `O=c1cc(-c2ccccc2)nc(N2CCN(Cc3ccccc3)CC2)[nH]1`, the AC50 is > 42 µM (inactive).

Turning to `Cc1ccc(NS(=O)(=O)c2csc(C(N)=O)c2)cc1C`, the AC50 is > 42 µM (inactive).

For the compound `C[C@]12CC[C@H]3C(=CCc4cc(O)ccc43)[C@@H]1CCC2=O`, the AC50 is > 42 µM (inactive).

In the case of `CCCNC(=O)CN(c1ccc(F)cc1)S(=O)(=O)c1ccc2c(c1)OCCO2`, the AC50 is > 42 µM (inactive).

As to `CC(=O)Nc1cc2nn(-c3ccccc3)nc2cc1Cl`, the AC50 is > 42 µM (inactive).

With `CSc1ncccc1C(=O)NC1CCCc2c1cnn2-c1ccc(C)c(C)c1` (stereo unspecified), the AC50 was > 42 µM (inactive).

On to `COc1ccc(C(=O)CSc2nnc3ccc(-c4ccccn4)nn23)cc1`, for which the AC50 was > 42 µM (inactive).

Consider `O=c1[nH]cnc2sc3c(c12)CCC3`, for which the AC50 was > 42 µM (inactive).

Consider `O=C(N/N=C/C(Br)=C/c1ccccc1)c1n[nH]c2c1CCC2`, for which the AC50 was 6.68 µM.

Consider `C=C(C)Cc1c(C)c(C#N)c2[nH]c3ccccc3n2c1=O`, for which the AC50 was > 42 µM (inactive).

For the compound `COc1ccc(NC(=O)CN(c2ccc(C(C)C)cc2)S(=O)(=O)c2c(C)noc2C)cc1OC`, the AC50 was > 42 µM (inactive).

In the case of `O=C(/C=C/c1ccc(Cl)cc1)NCc1ccncc1`, the AC50 was > 42 µM (inactive).
